“Also recorded” adds a separate entry of the source.
Tests used:
conscious mice = assay: Haemodynamic effects in conscious mice with telemetric implants (Example D); type: in vivo; details: result in words, dosages with antifibrotic properties
Experimental: The haemodynamic effects of i.e. example, the compound of formula 3, the compound of formula 4, the compound of formula 6 were analyzed in conscious mice. Telemetric implants (DSI®) were used. Signals were received with RMC1-DSI® receiver plates, compiled and analyzed with PONEMAH® physiology platform software.
The mice received either placebo (tylose), 0.3 mg/kg the compound of formula 27, 1 mg/kg the compound of formula 27, 3 mg/kg the compound of formula 27 (FIG. 1), 1.0 mg/kg the compound of formula 3, 3.0 mg/kg the compound of formula 3, 10.0 mg/kg the compound of formula 3 (FIG. 2A,2B), 1.0 mg/kg the compound of formula 4, 3.0 mg/kg the compound of formula 4, 10.0 mg/kg the compound of formula 4 (FIG. 3A/3B), 0.3 mg/kg the compound of formula 6, 1.0 mg/kg the compound of formula 6, 3.0 mg/kg, 10.0 mg/kg the compound of formula 6 (FIG. 4A/4B). The blood pressure and heart rate was monitored before and after application of placebo or the compounds.

[1] = system: Bleomycin-induced skin fibrosis; assay: Bleomycin-induced skin fibrosis, preventive dose-regimen (Example A); type: in vivo, mice; details: for Collagen content / Myofibroblast count / Dermal thickness: Table 2; for Collagen content: bleomycin + vehicle 1.56; for Myofibroblast count: bleomycin + vehicle 3.86; for Dermal thickness: vs vehicle-treated control, bleomycin + vehicle 1.71; for dermal thickness, hydroxyproline content of the skin and the number of dermal myofibroblasts: result in words, bleomycin-induced SSc in mice, preventive dose-regimen
Experimental: Local skin fibrosis was induced in 6-week-old, pathogen-free, female DBA/2 mice (Charles River, Sulzfeld, Germany) by repeated (every other day) subcutaneous injections of bleomycin (0.5 mg/ml in saline) in a defined area of the upper back. Control mice were injected in the same manner with saline only and served as reference. For all groups the injection volume was 100 μl. Concomitant to bleomycin treatment, the mice were treated orally with test drug or vehicle. Mice were treated a) with vehicle b) with 1 mg/kg compound of formula 27, and c) with 3 mg/kg compound of formula 27, twice a day via gavage for 21 days. After this 3 weeks treatment period, the animals were sacrificed and skin samples were obtained for analysis.
The injected skin areas were fixed in 4% formalin and embedded in paraffin. Histological sections were stained with hematoxylin and eosin for the determination of dermal thickness. The dermal thickness was determined by measuring the largest distance between the epidermal-dermal junction and the dermal-subcutaneous fat junction. The measurements were performed by an examiner blinded to the treatment of the mice.
To analyze the collagen content in skin samples, hydroxyproline assay was performed. After digestion of punch biopsies (Ø 3 mm) in 6M HCl for three hours at 120° C., chloramine T (0.06 M) was added and samples were mixed and incubated for 20 min at room temperature. 3.15 M perchloric acid and 20% p-dimethylaminobenzaldehyde were added and samples were incubated for additional 20 min at 60° C. The absorbance was determined at 557 nm.
The expression of α-smooth muscle actin (αSMA) was analyzed in paraffin embedded sections. After deparaffinization, samples were incubated with 3% bovine serum albumin followed by incubation with 3% H2O2. αSMA positive cells in mouse sections were detected by incubation with monoclonal anti-αSMA antibodies (clone 1A4, Sigma-Aldrich, Steinheim, Germany). Irrelevant isotype antibodies in the same concentration were used for control (Santa Cruz Biotechnology, Santa Cruz, Calif., USA). Antibodies labeled with horseradish peroxidase (Dako, Hamburg, Germany) were used as secondary antibodies. The expression of the NICD and αSMA was visualized with DAB peroxidase substrate solution (Sigma-Aldrich). The number of myofibroblasts was counted from 4 different sections of lesional skin for each mouse by an examiner blinded to the treatment of the mice.

[2] = system: Bleomycin-induced skin fibrosis; assay: as above; type: in vivo, mice; details: Table 2, 0.3 mg/kg
[3] = system: established Bleomycin-induced skin fibrosis; assay: Established bleomycin-induced skin fibrosis, therapeutic dose-regimen (Example B); type: in vivo; details: result in words; bleomycin-induced SSc in mice, therapeutic dose-regimen after established fibrosis
Experimental: Local skin fibrosis was induced in 6-week-old, pathogen-free, female DBA/2 mice (Charles River, Sulzfeld, Germany) by repeated (every other day) subcutaneous injections of bleomycin (0.5 mg/ml in saline) in a defined area of the upper back. Control mice were injected in the same manner with saline only. For all groups the injection volume was 100 μl. The study comprises 4 arms with • a) mice receiving saline injection for 6 weeks (serving as reference) • b) mice receiving Bleomycin injection for 6 weeks • c) mice receiving Bleomycin injection for 6 weeks and additional treatment with the compound of formula 27 (3 mg/kg) twice a day via gavage for the last 3 weeks • d) mice receiving the first 3 weeks bleomycin injections and the second 3 weeks saline injection.
After 6 weeks the animals were sacrificed and skin samples were obtained for analysis.
(§1) Histological analysis, hydroxyproline assay and immunohistochemistry for α-smooth muscle actin were performed as described in the Example 1 section.

Tsk-1 mice = assay: Tight skin (Tsk-1) mouse model of systemic sclerosis (Example C); type: in vivo; details: result in words; TSK mice with established fibrosis before start of treatment
Experimental: In addition to the mouse model of bleomycin-induced dermal fibrosis, the tight-skin (Tsk-1) mouse model of systemic sclerosis was used to evaluate the anti-fibrotic potential of test drugs. Due to a dominant mutation in fibrillin-1, the phenotype of Tsk-1 is characterized by an increased hypodermal thickness. Genotyping of Tsk-1 mice was performed by PCR with the following primers: mutated fibrillin-1/Tsk-1 forward primer: 5′-[…]-3′, reverse primer: 5′-[…]-3′. Tsk-1 mice were treated daily with test drug or vehicle, respectively, by oral gavage. In addition, a group of corresponding wild type(pa/pa) mice was treated with vehicle. The treatment was started at an age of five weeks. After five weeks of treatment, mice were sacrificed by cervical dislocation and skin samples were obtained for analysis.
as §1

human dermal fibroblasts = assay: TGFbeta-induced collagen gene expression and hydroxyproline deposition in human dermal fibroblasts (Example E); type: cell-based; details: result in words; human dermal fibroblasts in vitro
Experimental: The effects of the compound of formula 27 and vardenafil as stand alone and in combination were analyzed in vitro in human dermal fibroblasts in vitro.

SMILES	haemodynamic profile (blood pressure and heart rate) (conscious mice)	Collagen content ([1]; 1 mg/kg) [x-fold change]	Myofibroblast count ([1]; 1 mg/kg) [x-fold change]	Dermal thickness ([1]; 1 mg/kg) [x-fold change]	dermal thickness, hydroxyproline content of the skin and the number of dermal myofibroblasts [1]	also measured
COC(=O)N(C)c1c(N)nc(-c2nn(Cc3ccccc3F)c3ncc(F)cc23)nc1N	did not or only moderately, change					
COC(=O)N(C)c1c(N)nc(-c2nn(Cc3ccccc3F)c3ncccc23)nc1N [compound of formula 3, Methyl-4,6-diamino-2-[1-(2-fluorobenzyl)-1H-pyrazolo[3,4-b]pyridine-3-yl]-5-pyrimidinyl-(methyl)carbamate]	did not or only moderately, change	1.38	2.55	1.38	significantly reduced; also recorded: dose dependent and significant effects	
COC(=O)Nc1c(N)nc(-c2nn(Cc3ccccc3F)c3ncccc23)nc1N [compound of formula 4, Methyl-4,6-diamino-2-[1-(2-fluorobenzyl)-1H-pyrazolo[3,4-b]pyridine-3-yl]-5-pyrimidinyl-carbamate]	did not or only moderately, change					
COC(=O)Nc1c(N)nc(-c2nn(Cc3ccccc3F)c3ncc(F)cc23)nc1N [compound of formula 6, Methyl-{4,6-diamino-2-[5-fluoro-1-(2-fluorobenzyl)-1H-pyrazolo[3,4-b]pyridine-3-yl]pyrimidine-5-yl}carbamate]		1.28	2.05	1.24	significantly reduced; also recorded: dose dependent and significant effects	Collagen content ([1]; 3 mg/kg): 1.20 x-fold change; Myofibroblast count ([1]; 3 mg/kg): 1.49 x-fold change; Dermal thickness ([1]; 3 mg/kg): 1.19 x-fold change; Collagen content ([2]; bleomycin + vehicle 1.56): 1.41 x-fold change; Myofibroblast count ([2]; bleomycin + vehicle 3.86): 3.13 x-fold change; Dermal thickness ([2]; vs vehicle-treated control, bleomycin + vehicle 1.71): 1.41 x-fold change
Nc1nc(-c2nn(Cc3ccccc3F)c3ncccc23)ncc1C1CC1 [compound of formula 27, 3-(4-Amino-5-cyclopropylpyrimidin-2-yl)-1-(2-fluorobenzyl)-1H-pyrazolo[3,4-b]pyridine]	did not or only moderately, change				significantly reduced	dermal thickness, hydroxyproline content of the skin and the number of dermal myofibroblasts [3]: significantly reduced; dermal thickness, hydroxyproline content of the skin and the number of dermal myofibroblasts (Tsk-1 mice): significantly reduced; TGFbeta-induced Collagen gene expression (human dermal fibroblasts): significantly blocked; TGFbeta-induced Hydroxyproline (HP) deposition (human dermal fibroblasts): significantly blocked
